# Target: T1, GAT-1 (Macaca mulatta, UniProt H9ELS5)
# T1 construct: from tissue; host or cells: brain of living rhesus monkeys (in vivo PET)
# Assay: Guo plot comparing baseline VT of two radiotracers (relative affinity and BPND)
# Format: in vivo, rhesus monkeys (Macaca mulatta)
# Description: Occupancy plots ([26]) were used to estimate tiagabine occupancy and the nondisplaceable volume of distribution (VND). This VND value was used to compute the nondisplaceable binding potential (BPND = VT/VND − 1). To compare the performance between 2 radiotracers, a Guo plot ([27]) was created, using baseline VT values, to assess the relative affinity and BPND values of each radiotracer.
# T1 sequence (H9ELS5 1-599): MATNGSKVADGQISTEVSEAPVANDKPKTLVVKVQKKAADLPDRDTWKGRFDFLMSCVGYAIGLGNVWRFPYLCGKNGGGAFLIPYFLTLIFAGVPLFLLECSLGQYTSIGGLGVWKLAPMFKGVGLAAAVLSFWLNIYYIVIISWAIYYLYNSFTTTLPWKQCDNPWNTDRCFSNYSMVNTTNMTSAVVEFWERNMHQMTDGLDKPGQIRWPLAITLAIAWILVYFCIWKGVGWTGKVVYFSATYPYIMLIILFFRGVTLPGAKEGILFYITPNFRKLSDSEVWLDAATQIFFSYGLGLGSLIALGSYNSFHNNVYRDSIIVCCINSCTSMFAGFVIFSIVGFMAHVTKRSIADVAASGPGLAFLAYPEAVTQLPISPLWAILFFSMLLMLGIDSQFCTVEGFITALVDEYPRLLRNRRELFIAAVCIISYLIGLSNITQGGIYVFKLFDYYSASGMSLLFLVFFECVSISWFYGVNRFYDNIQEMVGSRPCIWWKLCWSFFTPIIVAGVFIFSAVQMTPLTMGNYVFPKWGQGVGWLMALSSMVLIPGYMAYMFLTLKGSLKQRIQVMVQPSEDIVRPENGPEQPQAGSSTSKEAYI
structure (smiles),measurement,setting,value
Cc1ccccc1C(=CCCN1CCCC(C(=O)O)C1)c1ccccc1[18F] (centres unmarked) [^18F-GATT-44],KD ratio (KD^GATT-31/KD^GATT-44),Guo plot slope using measured fp values,1.06
same,BPND predicted higher than for ^18F-GATT-31,"Guo plot y-intercept, baseline VT",approximately 17%

# Reference: PMC12487869, “Toward Imaging of the GABA Transporter Type 1 In Vivo: Quantitative Evaluation of 4 Novel PET Radiotracers in Nonhuman Primates” (Journal of Nuclear Medicine, 2025)
